Experimental data taken from patent publication US10570184B2, “GLP-1/glucagon receptor co-agonists for medical use” (Novo Nordisk A/S, priority 2014, dated 2020).
Starred links: 1 amine or outer side, 2 acyl side, 3 side chain; linkers in the order of their positions; H or OH if unused. Non-standard residues stand in square brackets, D forms with d. Residues, ends and D or L forms follow the SMILES beside them. Groups on a side chain read outwards from the residue. *: point of attachment. C18 diacid = O=C(O)CCCCCCCCCCCCCCCCC(=O)*; γGlu = O=C(O)[C@H](CCC(=O)[*:2])N[*:1]; Ac4c = NC1(C(=O)O)CCC1; AEEA = NCCOCCOCC(=O)O; Aib = CC(C)(N)C(=O)O

Columns and labels:
human GLP-1 receptor [1] = molecular target: T1, human GLP-1 receptor (Homo sapiens, UniProt P43220); test: Assay (I)(a) GLP-1 receptor activation, CRE luciferase reporter gene assay in BHK cells; assay type: cell-based; details: without presence of serum albumin; read-out: GLP-1R EC50 (pM) [Assay (I)(a)]
T1 construct: expressed in transfected cells; host or cells: membranes of BHK cells (parent BHKTS13), clone FCW467-12A
Method in brief: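 Stable BHK clone expressing human GLP-1 receptor with CRE-driven firefly luciferase, 5×10EE3 cells/well in medium with 2% ovalbumin and 0.2% Pluronic F-68. Compounds at 1×10EE-13 to 1×10EE-6 M final, 3 h at 37° C.; luminescence read, EC50 (pM) from four-parameter fit.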

human GLP-1 receptor [2] = molecular target: T1, human GLP-1 receptor; test: Assay (II)(a) GLP-1 receptor binding, 125I-GLP-1 displacement SPA on BHK membranes; details: without presence of serum albumin; read-out: GLP-1R IC50 (nM) [Assay (II)(a)]
Method in brief: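 Membranes from BHK cells (clone FCW467-12A) stably expressing human GLP-1R were incubated with serially diluted compounds (8×10EE-13 to 8×10EE-7 M before addition) and [125I]-GLP-1-(7-36)NH2 with WGA SPA beads, 2 h at 30° C, pH 7.4. IC50 taken from displacement by non-linear regression. Run at ≤0.001% or 2.0% final serum albumin.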

[3] = Assay (III) ThT fibrillation assay for physical stability; assay type: physicochemical; details: 250 μM in 10 mM HEPES buffer, 37° C., shaking 960 rpm
Description: The purpose of this assay is to assess the physical stability of the glucagon derivatives of the invention in aqueous solutions. Low physical stability of a peptide may lead to amyloid fibril formation, which is observed as well-ordered, thread-like macromolecular structures in the sample, which eventually may lead to gel formation. This has traditionally been measured by visual inspection of the sample. However, that kind of measurement is very subjective and depending on the observer. Therefore, the application of a small molecule indicator probe is much more advantageous. Thioflavin T (ThT) is such a probe and has a distinct fluorescence signature when binding to fibrils [Naiki et al. (1989) Anal. Biochem. 177, 244-249; LeVine (1999) Methods. Enzymol. 309, 274-284]. […] The constant t0 is the time needed to reach 50% of maximum fluorescence. The two important parameters describing fibril formation are the lag-time calculated by t0−2τ and the apparent rate constant kapp 1/τ. Samples were prepared freshly before each assay. Each sample composition is described in the legends. The pH of the sample was adjusted to the desired value using appropriate amounts of concentrated NaOH and HCl. Thioflavin T was added to the samples from a stock solution in H2O to a final concentration of 1 μM. Sample aliquots of 200 μl (250 μM of the glucagon derivative in 10 mM HEPES buffer, pH 7.5) were placed in a 96 well microtiter plate (Packard OptiPlate™-96, white polystyrene). Usually, four or eight replica of each sample (corresponding to one test condition) were placed in one column of wells. The plate was sealed with Scotch Pad (Qiagen). Incubation at given temperature, shaking and measurement of the ThT fluorescence emission were done in a Fluoroskan Ascent FL fluorescence platereader (Thermo Labsystems). The temperature was adjusted to 37° C. The plate was incubated with orbital shaking adjusted to 960 rpm with an amplitude of 1 mm. Fluorescence measurement was done using excitation through a 444 nm filter and measurement of emission through a 485 nm filter. Each run was initiated by incubating the plate at the assay temperature for 10 min. The plate was measured every 20 minutes for a desired period of time. Between each measurement, the plate was shaken and heated as described. After completion of the ThT assay the four or eight replica of each sample was pooled and centrifuged at 20000 rpm for 30 minutes at 18° C. The supernatant was filtered through a 0.22 μm filter and an aliquot was transferred to a HPLC vial. The concentration of peptide in the initial sample and in the filtered supernatant was determined by reverse phase HPLC using an appropriate standard as reference. The percentage fraction the concentration of the filtered sample constituted of the initial sample concentration was reported as the recovery. The measurement points were saved in Microsoft Excel format for further processing and curve drawing and fitting was performed using GraphPad Prism. The background emission from ThT in the absence of fibrils was negligible. The data points are typically a mean of four or eight samples and shown with standard deviation error bars. Only data obtained in the same experiment (i.e. samples on the same plate) are presented in the same graph ensuring a relative measure of fibrillation between experiments. The data set may be fitted to Eq. (1).

T1 sequence (P43220 24-463): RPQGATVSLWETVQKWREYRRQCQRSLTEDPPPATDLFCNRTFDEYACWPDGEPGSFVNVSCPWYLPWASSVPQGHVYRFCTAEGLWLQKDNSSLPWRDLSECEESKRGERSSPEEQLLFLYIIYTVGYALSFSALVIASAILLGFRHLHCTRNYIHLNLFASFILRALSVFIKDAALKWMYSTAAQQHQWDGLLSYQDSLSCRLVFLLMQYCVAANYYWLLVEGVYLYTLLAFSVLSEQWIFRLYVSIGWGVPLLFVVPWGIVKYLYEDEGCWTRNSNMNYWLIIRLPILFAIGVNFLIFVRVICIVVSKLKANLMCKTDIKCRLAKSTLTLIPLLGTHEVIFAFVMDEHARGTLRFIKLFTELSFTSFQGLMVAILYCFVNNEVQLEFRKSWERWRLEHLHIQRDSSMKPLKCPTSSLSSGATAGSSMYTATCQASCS

EC50 (human GLP-1 receptor [1])	IC50 (human GLP-1 receptor [2])	ThT Assay Lag time (h) [Assay (III), pH 7.5] [3]	SMILES
2 pM	0.1 nM	–	CC[C@H](C)[C@H](NC(=O)[C@H](CC(C)C)NC(=O)[C@H](Cc1c[nH]c2ccccc12)NC(=O)[C@H](CCC(N)=O)NC(=O)[C@@H](NC(=O)[C@H](Cc1ccccc1)NC(=O)[C@H](CC(=O)O)NC(=O)[C@H](CCCNC(=N)N)NC(=O)[C@H](C)NC(=O)[C@H](CCCNC(=N)N)NC(=O)[C@H](CCCNC(=N)N)NC(=O)[C@H](C)NC(=O)[C@H](CC(=O)O)NC(=O)[C@H](CC(C)C)NC(=O)[C@H](Cc1ccc(O)cc1)NC(=O)[C@H](CCCNC(=N)N)NC(=O)[C@H](CO)NC(=O)[C@H](CC(C)C)NC(=O)[C@H](CC(=O)O)NC(=O)[C@H](CO)NC(=O)[C@@H](NC(=O)[C@H](Cc1ccccc1)NC(=O)[C@@H](NC(=O)CNC(=O)[C@H](CCC(N)=O)NC(=O)C(C)(C)NC(=O)[C@@H](N)Cc1c[nH]cn1)[C@@H](C)O)[C@@H](C)O)C(C)C)C(=O)N[C@@H](CCCCNC(=O)CC[C@H](NC(=O)CC[C@H](NC(=O)CC[C@H](NC(=O)CCCCCCCCCCCCCCCCC(=O)O)C(=O)O)C(=O)O)C(=O)O)C(=O)N[C@H](C(N)=O)[C@@H](C)O [Chem. 14, N^ε28-[(4S)-4-carboxy-4-[[(4S)-4-carboxy-4-[[(4S)-4-carboxy-4-(17-carboxyheptadecanoylamino)butanoyl]amino]butanoyl]amino]butanoyl]-[Aib2,Leu10,Arg12,Ala16,Arg20,Ile27,Lys28]-Glucagon amide] (HELM PEPTIDE1{H.[Aib].Q.G.T.F.T.S.D.L.S.R.Y.L.D.A.R.R.A.R.D.F.V.Q.W.L.I.K.T.[am]}|PEPTIDE2{[O=C(O)CCCCCCCCCCCCCCCCC(=O)[*:2]].[gGlu].[gGlu].[gGlu]}$PEPTIDE1,PEPTIDE2,28:R3-4:R2$$$V2.0)
–	–	45.0 h	CC[C@H](C)[C@H](NC(=O)[C@H](CC(C)C)NC(=O)[C@H](Cc1c[nH]c2ccccc12)NC(=O)[C@H](CCC(N)=O)NC(=O)[C@@H](NC(=O)[C@H](Cc1ccccc1)NC(=O)[C@H](CCC(=O)O)NC(=O)[C@H](CCCNC(=N)N)NC(=O)[C@H](C)NC(=O)[C@H](CCCNC(=N)N)NC(=O)[C@H](CCCNC(=N)N)NC(=O)[C@H](CO)NC(=O)[C@H](CCC(=O)O)NC(=O)[C@H](CC(C)C)NC(=O)[C@H](Cc1ccc(O)cc1)NC(=O)[C@H](CCCCN)NC(=O)[C@H](CO)NC(=O)[C@@H](NC(=O)[C@H](CC(=O)O)NC(=O)[C@H](CO)NC(=O)[C@@H](NC(=O)[C@H](Cc1ccccc1)NC(=O)[C@@H](NC(=O)CNC(=O)[C@H](CCC(N)=O)NC(=O)C1(NC(=O)[C@@H](N)Cc2c[nH]cn2)CCC1)[C@@H](C)O)[C@@H](C)O)C(C)C)C(C)C)C(=O)N[C@@H](CCCCNC(=O)CC[C@H](NC(=O)CC[C@H](NC(=O)COCCOCCNC(=O)COCCOCCNC(=O)CC[C@H](NC(=O)CC[C@H](NC(=O)CCCCCCCCCCCCCCCCC(=O)O)C(=O)O)C(=O)O)C(=O)O)C(=O)O)C(=O)N[C@H](C(N)=O)[C@@H](C)O [Chem. 19, N^ε28-[(4S)-4-carboxy-4-[[(4S)-4-carboxy-4-[[2-[2-[2-[[2-[2-[2-[[(4S)-4-carboxy-4-[[(4S)-4-carboxy-4-(17-carboxyheptadecanoylamino)butanoyl]amino]butanoyl]amino]ethoxy]ethoxy]acetyl]amino]ethoxy]ethoxy]acetyl]amino]butanoyl]amino]butanoyl]-[Acb2,Val10,Glu15,Arg20,Glu21,Ile27,Lys28]-Glucagon amide] (H-H[Ac4c]QGTFTSDVSKYLESRRAREFVQWLIK([γGlu-γGlu-AEEA-AEEA-γGlu-γGlu-C18 diacid])T-NH2)
–	–	45.0 h	CC[C@H](C)[C@H](NC(=O)[C@H](CC(C)C)NC(=O)[C@H](Cc1c[nH]c2ccccc12)NC(=O)[C@H](CCC(N)=O)NC(=O)[C@@H](NC(=O)[C@H](Cc1ccccc1)NC(=O)[C@H](CC(=O)O)NC(=O)[C@H](CCCNC(=N)N)NC(=O)[C@H](C)NC(=O)[C@H](CCCNC(=N)N)NC(=O)[C@H](CCCNC(=N)N)NC(=O)[C@H](CC(C)C)NC(=O)[C@H](CC(=O)O)NC(=O)[C@H](CC(C)C)NC(=O)[C@H](Cc1ccc(O)cc1)NC(=O)[C@H](CCCCN)NC(=O)[C@H](CO)NC(=O)[C@H](CC(C)C)NC(=O)[C@H](CC(=O)O)NC(=O)[C@H](CO)NC(=O)[C@@H](NC(=O)[C@H](Cc1ccccc1)NC(=O)[C@@H](NC(=O)CNC(=O)[C@H](CCC(N)=O)NC(=O)C(C)(C)NC(=O)[C@@H](N)Cc1c[nH]cn1)[C@@H](C)O)[C@@H](C)O)C(C)C)C(=O)N[C@@H](CO)C(=O)N[C@@H](CCCCNC(=O)CC[C@H](NC(=O)CC[C@H](NC(=O)COCCOCCNC(=O)COCCOCCNC(=O)CC[C@H](NC(=O)CCCCCCCCCCCCCCCCC(=O)O)C(=O)O)C(=O)O)C(=O)O)C(N)=O [Chem. 29, N^ε29-[(4S)-4-carboxy-4-[[(4S)-4-carboxy-4-[[2-[2-[2-[[2-[2-[2-[[(4S)-4-carboxy-4-(17-carboxyheptadecanoylamino)butanoyl]amino]ethoxy]ethoxy]acetyl]amino]ethoxy]ethoxy]acetyl]amino]butanoyl]amino]butanoyl]-[Aib2,Leu10,Leu16,Arg20,Ile27,Ser28,Lys29]-Glucagon amide] (H-H[Aib]QGTFTSDLSKYLDLRRARDFVQWLISK([γGlu-γGlu-AEEA-AEEA-γGlu-C18 diacid])-NH2; N-terminus assumed)
–	–	45.0 h	CC[C@H](C)[C@H](NC(=O)[C@H](CC(C)C)NC(=O)[C@H](Cc1c[nH]c2ccccc12)NC(=O)[C@H](C)NC(=O)[C@@H](NC(=O)[C@H](Cc1ccccc1)NC(=O)[C@H](CC(=O)O)NC(=O)[C@H](CCCNC(=N)N)NC(=O)[C@H](C)NC(=O)[C@H](CCCNC(=N)N)NC(=O)[C@H](CCCNC(=N)N)NC(=O)[C@H](CC(C)C)NC(=O)[C@H](CC(=O)O)NC(=O)[C@H](CC(C)C)NC(=O)[C@H](Cc1ccc(O)cc1)NC(=O)[C@H](CCCCN)NC(=O)[C@H](CO)NC(=O)[C@H](CC(C)C)NC(=O)[C@H](CC(=O)O)NC(=O)[C@H](CO)NC(=O)[C@@H](NC(=O)[C@H](Cc1ccccc1)NC(=O)[C@@H](NC(=O)CNC(=O)[C@H](CCC(N)=O)NC(=O)C(C)(C)NC(=O)[C@@H](N)Cc1c[nH]cn1)[C@@H](C)O)[C@@H](C)O)C(C)C)C(=O)N[C@@H](CO)C(=O)N[C@@H](CCCCNC(=O)CC[C@H](NC(=O)CC[C@H](NC(=O)COCCOCCNC(=O)COCCOCCNC(=O)CC[C@H](NC(=O)CCCCCCCCCCCCCCCCC(=O)O)C(=O)O)C(=O)O)C(=O)O)C(N)=O [Chem. 31, N^ε29-[(4S)-4-carboxy-4-[[(4S)-4-carboxy-4-[[2-[2-[2-[[2-[2-[2-[[(4S)-4-carboxy-4-(17-carboxyheptadecanoylamino)butanoyl]amino]ethoxy]ethoxy]acetyl]amino]ethoxy]ethoxy]acetyl]amino]butanoyl]amino]butanoyl]-[Aib2,Leu10,Leu16,Arg20,Ala24,Ile27,Ser28,Lys29]-Glucagon amide] (H-H[Aib]QGTFTSDLSKYLDLRRARDFVAWLISK([γGlu-γGlu-AEEA-AEEA-γGlu-C18 diacid])-NH2; N-terminus assumed)
